For 1 compound, MIC results are on record in ChEMBL document CHEMBL1671685, “Complete nucleotide sequence and comparative analysis of pPR9, a 41.7-kilobase conjugative staphylococcal multiresistance plasmid conferring high-level mupirocin resistance” (2010).

The subject of this assay is Staphylococcus aureus. Nature of the assay: Antibacterial activity against methicillin-resistant Staphylococcus aureus harboring 41.7-kilobase conjugative staphylococcal multiresistance plasmid pPR9 conferring high-level mupirocin resistance. The assay is classed as functional.

As to `C/C(=C\C(=O)OCCCCCCCCC(=O)O)C[C@@H]1OC[C@H](C[C@@H]2O[C@H]2[C@@H](C)[C@H](C)O)[C@@H](O)[C@H]1O` [MUPIROCIN], the MIC (as a rule, the lowest concentration that inhibits growth of the organism) is at least 1020 µg/mL.
